# Laboratory results as given in patent US20030199743A1, “Screening test and procedure using apocrine sweat” (priority 2000, published 2003).
# Test: THC in blood, eccrine sweat, apocrine sweat and urine after smoking a THC containing product
# Format: in vivo, human
# Protocol: Samples of apocrine and eccrine sweat were collected prior to oral consumption of a THC containing product. No THC was detected in either sample. The test individual then orally consumed (smoked) a quantity of a THC containing product. Small quantities (0.5 cc) of apocrine and eccrine sweat was separately collected over a period of 30 minutes under ambient conditions to induce sweating. When the collected samples were tested using standard laboratory tests for THC metabolites […].
compound,measurement,setting,value
"CCCCCc1cc(O)c2c(c1)OC(C)(C)[C@@H]1CCC(C)=C[C@@H]21 [Delta 9 THC, delta nine tetrahydrocannibinol]",Delta 9 THC concentration in apocrine sweat,apocrine sweat (0.5 cc) collected over 30 minutes after smoking a THC containing product,107 nanograms/ml
same,Delta 9 THC concentration in blood,"blood, test individual after smoking a THC containing product, standard laboratory test for THC",21 nanograms/ml
same,Delta 9 THC concentration in eccrine sweat,eccrine sweat (0.5 cc) collected over 30 minutes after smoking a THC containing product,4 nanograms/ml
same,Quantity of THC in apocrine sweat relative to blood,ratio apocrine sweat / blood,5.1 times
same,Quantity of THC in apocrine sweat relative to eccrine sweat,ratio apocrine sweat / eccrine sweat,26.75 times
same,Delta 9 THC concentration in urine,"urine, after smoking a THC containing product",undetect-
